The source of these data is article PMC11767929 (Molecules, 2025).

A word on the IC50: it is the midpoint of a concentration-inhibition curve.

What all share (format): cell-based
Series [1] has as its system HCT 116 (human colorectal cancer cell line). The experiment in a line: MTT cytotoxicity assay, HCT 116 cells. Particulars: for IC50: MTT assay, incubation time 24 h, read-out: IC50 HCT 116; for SI (HCT 116): selectivity index: ratio of IC50 NHDF-Neo to IC50 HCT 116. The procedure:
(§1) Cytotoxicity screening of the obtained glycoconjugates, their potential metabolites, and substrates used for their synthesis was conducted using the MTT assay.
(§2) All cells were kept in a humidified incubator at 37 °C in a 5% CO2 atmosphere.
(§3) Cell viability was assessed by the MTT (3-[4,5–dimethylthiazol-2-yl]-2,5-diphenyltetrazolium bromide) test (ACROS Organics). Stock solutions of tested compounds were prepared in DMSO and stored accordingly.
(§4) Cells treated with glycoconjugates or potential metabolites were incubated for another 24–72 h (depending on the cell line). Subsequently, 50 µL MTT solution (0.5 mg/mL) in RPMI medium without Phenol Red was added to each well. After 3 h of incubation, the MTT solution was removed, and the precipitated formazan was dissolved in 100 µL of DMSO. Finally, the absorbance of the solubilized formazan crystals was measured at the 570 nm wavelength. Each experiment was carried out in three independent iterations with four technical repetitions. […] Cell viability was expressed as:Cell viability (%) = (ODsample − ODblank)/(ODcontrol − ODblank) × 100%.
On the technique in general: Formazan colour is commonly taken as a measure of viable cells.

For series [2], the system named is MCF-7 (human breast adenocarcinoma cell line). As to the kind of experiment: MTT cytotoxicity assay, MCF-7 cells. To be noted: for IC50: Homo sapiens, MCF7, MTT assay, incubation time 72 h, read-out: IC50 MCF-7; for SI (MCF-7): selectivity index: ratio of IC50 NHDF-Neo to IC50 MCF-7. The procedure: as §1, §2, §3, §4
Series [3] relates to NHDF-Neo (normal human dermal fibroblast-neonatal cells). As to the kind of experiment: MTT cytotoxicity assay, NHDF-Neo healthy cells. To be noted: MTT assay, incubation time 24 h, read-out: IC50 NHDF-Neo. The protocol: as §1, §2, §3, §4
In series [4] the test system is HCT 116 (human colorectal cancer cell line). As to the kind of experiment: MTT assay in medium with 20 µM CuCl2, HCT 116 cells. To be noted: addition of CuCl2 at 20 µM; for IC50: Homo sapiens, HCT-116, MTT assay, 24 h, read-out: IC50 HCT 116 + Cu2+; for SI (HCT 116) + Cu2+: ratio of IC50 NHDF-Neo to IC50 HCT 116. The procedure: (§5) Therefore, it seemed reasonable to conduct additional experiments for the glycoconjugates for which the likely mechanism of action is based on the chelation of metal ions. Since copper can be toxic to cells, it was necessary to test the toxicity of different concentrations of copper salt on the proliferation of all cell line types. Cell cultures under standard conditions were treated with copper solutions of various concentrations, and their effect on cell proliferation was verified by the MTT assay. Cells with the non-supplemented medium were used as a reference for 100% cell viability. […] The antiproliferative activities of 8-AQ glycoconjugates were further tested in the presence of the addition of Cu^2+ ions. HCT 116, MCF-7, and NHDF-Neo cells were treated with solutions of glycoconjugates 13–18 in a culture medium supplemented with 20 µM copper chloride, and their proliferation was measured using the MTT assay. The control consisted of cells cultured in a medium with the same concentration of copper salt added. […] This effect was more pronounced for the MCF-7 cell line (Figure 2). A significant decrease in MCF-7 cell proliferation was observed after treatment with glycoconjugates at concentrations of 100 µM and 50 µM in the presence of Cu^2+ compared to treatment with glycoconjugates alone (cell viability 2–23% and 6–79%, respectively, for each glycoconjugate concentration).
(§6) Cells were seeded in 96-well plates at a concentration of 1 × 10^4 (HCT 116, NHDF-Neo) or 5 × 10^3 (MCF-7) per well. Cell cultures were incubated for 24 h at 37 °C in a humidified atmosphere with 5% CO2. The culture medium was then removed and replaced with 100 µL of the tested compounds solution at varying concentrations (from 25 µM to 200 µM) in the medium with the addition of CuCl2. The final concentration of CuCl2 was 20 µM in each well. Following 24 or 72 h of incubation, the MTT assay was performed to assess cell viability.

Series [5] has as its system MCF-7 (human breast adenocarcinoma cell line). The experiment in a line: MTT assay in medium with 20 µM CuCl2, MCF-7 cells. To be noted: for IC50: Homo sapiens, MCF7, MTT assay, 72 h, read-out: IC50 MCF-7 + Cu2+; for IC50 / SI (MCF-7) + Cu2+: addition of CuCl2 at 20 µM; for SI (MCF-7) + Cu2+: ratio of IC50 NHDF-Neo to IC50 MCF-7. The protocol:
as §5, §6

The subject of series [6] is NHDF-Neo (normal human dermal fibroblast-neonatal cells). The experiment in a line: MTT assay in medium with 20 µM CuCl2, NHDF-Neo cells. To be noted: addition of CuCl2 at 20 µM, 24 h, read-out: IC50 NHDF-Neo + Cu2+. The procedure:
as §5, §6

Consider `CC(=O)OC[C@H]1O[C@@H](OCCn2cc(CNc3cccc4cccnc34)nn2)[C@H](OC(C)=O)[C@@H](OC(C)=O)[C@H]1OC(C)=O` [Compound 16], for which the IC50 in series [1] (Homo sapiens, HCT-116, 24 h) was 227 ± 6.3 µM; in series [1], 290 ± 9.7 µM; in series [2], 227 ± 6.3 µM; in series [3] it was above 800 µM; in series [4], 70.8 ± 3.9 µM; in series [5], 31.8 ± 4.9 µM. Besides, the “SI (HCT 116)” value in series [1] is given as above 2.7. Besides, the “SI (HCT 116) + Cu2+” value in series [4] is on record as above 2.8. Also, in series [5] (MCF-7 cells, 20 µM CuCl2), the “increase of cytotoxicity in the presence of Cu(II) ions versus without copper” value is listed as “approximately six-fold”. Moreover, the “SI (MCF-7) + Cu2+” value in series [5] was above 6.3. Besides, the CC50 in series [6] was above 200 µM.

As for `CC(=O)OC[C@H]1O[C@@H](OCc2cn(CCCNc3cccc4cccnc34)nn2)[C@H](OC(C)=O)[C@@H](OC(C)=O)[C@@H]1OC(C)=O` [Compound 17], the IC50 amounted to 116 ± 5.9 µM in series [1] (Homo sapiens, HCT-116, 24 h); 78.1 ± 9.3 µM in series [2]; 416 ± 12.4 µM in series [3]; 71.9 ± 1.7 µM in series [4]; 34.8 ± 0.7 µM in series [5]. Moreover, the “SI (HCT 116)” value in series [1] was found to be 3.6. Also, the “SI (MCF-7)” value in series [2] turned out to be 5.3. In series [4], the “SI (HCT 116) + Cu2+” value is given as above 2.8. Moreover, the “SI (MCF-7) + Cu2+” value in series [5] is recorded as above 5.7. Besides, the CC50 in series [6] is above 200 µM.

With `CC(=O)OC[C@H]1O[C@@H](OCc2cn(CCCNc3cccc4cccnc34)nn2)[C@H](OC(C)=O)[C@@H](OC(C)=O)[C@H]1OC(C)=O` [Compound 18], the IC50 in series [1] (Homo sapiens, HCT-116, 24 h) was 182 ± 15.6 µM; in series [2], 96.8 ± 6 µM; in series [3], 585 ± 7.1 µM; in series [4], 43.4 ± 2.4 µM; in series [5], 35.4 ± 0.1 µM. In addition, in series [1], the “SI (HCT 116)” value is 3.2. In series [2], the “SI (MCF-7)” value was 6.0. In addition, the “SI (HCT 116) + Cu2+” value in series [4] is listed as above 4.6. For the same compound, the “SI (MCF-7) + Cu2+” value in series [5] is above 5.6. Besides, the CC50 in series [6] is above 200 µM.
